Experimental data as given in article PMC6368337, “GluClR-mediated inhibitory postsynaptic currents reveal targets for ivermectin and potential mechanisms of ivermectin resistance” (PLoS Pathogens, 2019).

Legend:
[1] = biological target: α (avr-14b) GluClRs (Haemonchus contortus, UniProt O46124); assay: Two-electrode voltage clamp in oocytes, α GluClRs; type: cell-based, H. contortus
Method: (§1) cDNAs encoding the α (avr-14b) (pcDNA 3.1+) or β (pUNIV) GluClR subunits of H. contortus were nuclear injected into oocytes (NASCO, WI USA) or transfected into HEK293AD cells (CellBank Australia) using a calcium phosphate-DNA co-precipitate method. Synapse formation between neurons and HEK293 cells was promoted by co-transfecting neuroligin 2A or 1B and the cDNA encoding CD4 surface antigen was also added to the transfection mixture so as to identify transfected cells. The oocytes and HEK cells were used for experiments 2–3 days after the introduction of the cDNAs. All experiments were done at room temperature (22 ± 1°C).
(§2) Xenopus laevis oocytes were harvested by surgical incision. The oocytes were then defolliculated with 1.5 mg/ml collagenase for 2 hours. Free oocytes were rinsed with calcium-free OR-2 solution containing (in mM) 82.5 NaCl, 2 KCl, 1 MgCl2, 5 HEPES, pH 7.4 and mature stage V or VI oocytes were isolated for experiments. The DNAs coding for α and β subunits were nuclear injected into the oocytes using a Nanoliter 2000 microinjector (WPI Inc) at a ratio of (α:β), 1:0, 0:1, 1:1 and 1:50. The total amount of injected DNA in all combinations was 400 ng ml^−1, including the 1:50 (α:β) combination (8 ng of DNA encoding the α and 392 ng of DNA encoding β subunits). Injected oocytes were incubated in ND96 storage solution (in mM) 96 NaCl, 2 KCl, 1 MgCl2.6H2O, 1.8 CaCl2, 5 HEPES, 50 μg ml^−1 gentamicin, 2.5 sodium pyruvate, 0.5 theophylline, pH 7.4 at 16°C for 2–3 days before experiment.
(§3) For the two-electrode voltage clamp recordings, each oocyte was secured in a cell bath that was continually perfused with ND96 recording solution (ND96 storage solution without pyruvate, theophylline and gentamicin). […] The two microelectrodes contained 3 M KCl and had resistances of 0.2–2 MΩ. Recordings were done using Clampex 10.2 software (Molecular Devices) at a clamped voltage of −40 mV. Currents were low-pass filtered at 200 Hz, sampled at 2 kHz using a Gene Clamp 500B amplifier and digitised by a Digidata 1440A interface. The IVM (IVM B1a) concentration-response experiments were standardised by using an application protocol that consisted of applying increasing concentrations of IVM for, respectively, 3 min, 3 min, 3 min, 2 min, 1 min, 1 min and 0.5 min.
Group data were analysed in SigmaPlot 13.0 using one-way ANOVAs, where p < 0.05 was taken as the significance threshold and expressed as mean ± SEM. Tests for normally distributed data are built into the SigmaPlot software. Confocal images were captured and analysed with Zen 2012 SP2 (Zeiss) software. Oocyte concentration-response data were fit to a Hill equation to obtain an EC50 and Hill co-efficient for each oocyte recording. These parameters were then averaged across multiple oocyte experiments of the same type. Single channel recordings were analysed in QuB software. […] The selected critical times eliminated periods of receptor desensitisation while retaining singe receptor active periods. Mean active period duration and intra-activation open probability was estimated from each patch. Group means were obtained by averaging across multiple patches for each recording condition.

[2] = tested on: Untransfected HEK293 cells; assay: Fluorescence recovery after photobleaching (FRAP), lateral membrane diffusion; conditions: in cell membrane
Method: The second experiment was aimed at determining the lateral membrane diffusion properties of IVM using the fluorescence recovery after photobleaching (FRAP) technique. After a 30-min equilibration time, 5 cells were monitored for fluorescence recovery within a bleached circular patch of membrane of 3.7 μm diameter (Fig 8C). Any bleaching and recovery of the surrounding area of the cell was measured, using a similar circular patch and used to correct the recovery rate of the membrane delineated by the bleached area. We also noted that the recovery reached 98 ± 2% of control. The time constant (τ) for recovery of 1.3 minutes was used to calculate the diffusion coefficient (D), using the radius (r) of the bleached patch, according to D = r^2/4τ. The calculated value of D was 1.1 x 10^−2 μm^2s^−1. Over the course of 1 s, the IVM-bdpy probe would traverse 0.2 μm along the membrane surface (lateral diffusion rate of 0.2 μms^−1). […] We infer that this slow lateral diffusion rate coupled to membrane partitioning are the major contributors to local increases of IVM around its target binding sites and the slow quasi-irreversible actions of IVM at GluClRs.
Membrane partitioning and FRAP experiments were performed on an LSM 710 inverted 2-photon confocal microscope equipped with a 40X water immersion objective lens (1.2 NA/280 μM WD/0.208 μM/pixel and a GFP/Alexa 488 filter set. Untransfected HEK293 cells at a confluency of 50–75% were plated onto 35-mm glass bottom dishes one day prior to experiments. The IVM-bdpy fluorophore was dissolved in 100% DMSO and stored at ‐20°C at a concentration of 24 mM.
A Mai Tai eHP 2-photon laser/760-1040 nm was used as an excitation source (power at 920 nm) for the FRAP experiments. The laser and bleaching power were set to 7% and 75% respectively. Membrane partitioning images were taken for 35 min at 0.5 Hz after replacing the cell medium (extracellular solution) with one containing the IVM-bdpy probe at a concentration of 500 nM. FRAP images were taken at a frequency of 0.5 Hz for 10 min after a 30 min equilibration period in 500 nM IVM-bdpy.

[3] = biological target: αβ (1:1) GluClRs (Haemonchus contortus, UniProt O46124+P91730); assay: Two-electrode voltage clamp in oocytes, αβ (1:1) GluClRs; type: cell-based, H. contortus
Chain of αβ (1:1) GluClRs (P91730 19-432): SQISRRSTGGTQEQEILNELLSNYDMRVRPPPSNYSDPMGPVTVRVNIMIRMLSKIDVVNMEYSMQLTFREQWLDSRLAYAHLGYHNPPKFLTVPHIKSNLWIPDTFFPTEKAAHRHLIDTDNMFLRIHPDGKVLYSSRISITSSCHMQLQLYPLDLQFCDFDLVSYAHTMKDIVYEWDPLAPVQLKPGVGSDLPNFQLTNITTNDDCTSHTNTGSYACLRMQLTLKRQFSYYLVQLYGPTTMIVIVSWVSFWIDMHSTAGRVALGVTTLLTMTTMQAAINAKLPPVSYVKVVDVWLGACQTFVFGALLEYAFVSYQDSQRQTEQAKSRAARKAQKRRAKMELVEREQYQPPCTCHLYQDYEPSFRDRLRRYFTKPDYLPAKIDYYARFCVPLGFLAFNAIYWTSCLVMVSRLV
Chain of αβ (1:1) GluClRs (O46124 entry or part of it): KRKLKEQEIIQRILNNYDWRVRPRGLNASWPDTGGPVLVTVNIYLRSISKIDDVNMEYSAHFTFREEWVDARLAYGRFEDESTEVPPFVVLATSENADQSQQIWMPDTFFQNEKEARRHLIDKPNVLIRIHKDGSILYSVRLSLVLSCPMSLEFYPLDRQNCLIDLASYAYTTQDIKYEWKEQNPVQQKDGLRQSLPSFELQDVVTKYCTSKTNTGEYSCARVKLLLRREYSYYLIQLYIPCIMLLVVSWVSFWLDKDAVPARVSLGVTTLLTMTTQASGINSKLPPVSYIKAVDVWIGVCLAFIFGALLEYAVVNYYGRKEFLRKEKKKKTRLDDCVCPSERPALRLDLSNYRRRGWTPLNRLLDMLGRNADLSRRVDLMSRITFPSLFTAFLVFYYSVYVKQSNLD
Method: as §1, §2, §3
Group data were analysed in SigmaPlot 13.0 using one-way ANOVAs, where p < 0.05 was taken as the significance threshold and expressed as mean ± SEM. Tests for normally distributed data are built into the SigmaPlot software. Confocal images were captured and analysed with Zen 2012 SP2 (Zeiss) software. Oocyte concentration-response data were fit to a Hill equation to obtain an EC50 and Hill co-efficient for each oocyte recording. […] Single channel recordings were analysed in QuB software. […]

[4] = Lipophilicity (logP); type: physicochemical

Chain of α (avr-14b) GluClRs (O46124 entry or part of it): as above

Molecule `CC[C@H](C)[C@H]1O[C@]2(CC[C@@H]1C)C[C@@H]1C[C@@H](C/C=C(\C)[C@@H](O[C@H]3C[C@H](OC)[C@@H](O[C@H]4C[C@H](OC)[C@@H](O)[C@H](C)O4)[C@H](C)O3)[C@@H](C)/C=C/C=C3\CO[C@@H]4[C@H](O)C(C)=C[C@@H](C(=O)O1)[C@]34O)O2` [IVM, Ivermectin] has an EC50 ([1]; EC50, oocytes, holding potential −40 mV) of 0.022 ± 0.003 µM, a Hill co-efficient ([1]; oocytes, −40 mV) of 1.9 ± 0.1 and an Emax ([1]; read-out: maximal response, % of that seen with saturating glutamate) of 59%. It also gave a lateral diffusion rate [2] of 0.2 μms^−1, an EC50 ([3]; EC50, oocytes, cDNA injection ratio α:β 1:1, −40 mV) of 0.086 ± 0.014 µM and a Hill co-efficient ([3]; oocytes, α:β 1:1, −40 mV) of 1.0 ± 0.1. It also gave an Emax ([3]; read-out: maximal response, % of saturating glutamate response) of 26% and a logP [4] of 5.4.
